According to PubChem BioAssay AID179 (DTP/NCI, 2004):
Calls of active or inactive are those of the source.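 How the source made its calls: active means compounds giving half or more protection of infected cells from virus-caused growth loss, again on retest; inactive means the rest.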 Where a SMILES comes first, the peptide text is derived from it. [ ]: non-standard residue; d: D form. The star is where a group is joined. ξ: configuration not given here. Bz = O=C(c1ccccc1)*; Bn = c1ccc(C*)cc1; ξC = NC(CS)C(=O)O

System: CEM cells HIV-1 protection, formazan growth assay
Assay: NCI AIDS Antiviral Assay
Settings: for IC50: measured here: growth of uninfected CEM cells
How it was run: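 Protection of CEM cells against HIV-1 measured as cell growth via soluble formazan read-out, with five concentrations tested on both infected and uninfected cells; failure to protect may reflect toxicity.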

| Structure (SMILES) | EC50 | IC50 | outcome |
| --- | --- | --- | --- |
| CCCCCCCCCCCCCCCCCC(=O)NCCCNCCCNC(=O)CCCCCCCCCCCCCCCCC | > 12.6 µM | > 12.6 µM | – |
| O=C(O)C1(C(=O)O)CCC1.[NH2-].[NH2-].[Pt+2] | > 339 µM | 7.94 µM | – |
| NNC(=S)NCCNC(=S)NN | > 200 µM | > 200 µM | – |
| COc1cc(NC(=O)c2ccc(NC(=O)c3ccc(N)cc3)cc2)c(OC)cc1N=Nc1ccc(N=Nc2ccc3cc(S(=O)(=O)O)cc(S(=O)(=O)O)c3c2)c(C)c1 | 19.5 µM | > 100 µM | – |
| O=c1c2ccccc2oc2nc3ccc(Cl)cc3n12 | > 37.2 µM | > 37.2 µM | – |
| CCN(CC)c1c(C)nnn1C1OC(COC(C)=O)C(OC(C)=O)C(OC(C)=O)C1OC(C)=O (stereo unspecified) | > 141 µM | > 141 µM | – |
| COc1cccc2c1CCc1sc(CN3CCN(C)CC3)nc1-2 | > 200 µM | 30.2 µM | – |
| Cn1cc(NC(=O)c2cc(N)nn2C)cc1C(=O)Nc1ccc2cc(S(=O)(=O)O)cc(S(=O)(=O)O)c2c1 | > 200 µM | > 200 µM | – |
| Cc1cn([C@H]2C[C@@H]3[C@@H](COC(C(Cl)Cl)N3O)O2)c(=O)[nH]c1=O (stereo partly specified) | > 200 µM | > 200 µM | – |
| O=C(CC(=O)Nc1cccc(Cl)c1)NNCC(=O)Nc1nnc(-c2ccccc2)s1 | > 22.4 µM | > 22.4 µM | – |
| CCOC(=O)NC(=O)c1cn(CCCCCCCCCCC(=O)NCCCN2CCN(CCCNC(=O)CCCCCCCCCCn3cc(C(=O)NC(=O)OCC)c(=O)[nH]c3=O)CC2)c(=O)[nH]c1=O | – | – | inactive |
| COc1ccc(-c2cc(=O)c3c(C)cc(O)cc3o2)cc1OC | > 200 µM | 174 µM | – |
| COC(=O)/C=C(/C=C1/C(C#N)=C(N)N(c2ccc(Cl)cc2)C1(C)/C(=C\C(=O)OC)C(=O)OC)C(=O)OC (stereo unspecified) | > 200 µM | 8.91 µM | – |
| N#Cc1c(Cl)cc(C#N)n2c1nc1ccccc12 | > 20 µM | 0.363 µM | – |
| COc1ccc(N2C(=O)C3c4[nH]c5ccc([N+](=O)[O-])cc5c4C4CCC(C(C)(C)C)CC4C3C2=O)cc1 (stereo unspecified) | > 200 µM | 18.2 µM | – |
| CCOC(=O)CNC(=O)Sc1ccccc1C(=O)N[C@@H](C)C(N)=O | 1.82 µM | 97.7 µM | – |
| COC(=O)/C(=N\NC(N)=O)C(C(=O)C=C(C)C)C(=O)C(=O)Nc1ccc(Cl)c(Cl)c1 (stereo unspecified) | > 550 µM | 457 µM | – |
| Cc1cc(O)cc(O)c1C(=O)O[C@]1(C)C(=O)C=C2C=C(/C=C/C(=O)O)OC=C2C1=O | – | – | inactive |
| COc1ccc(S(=O)c2ccc(OC)cc2)cc1 | > 955 µM | 490 µM | – |
| CCOC(=O)C1C(c2ccc(OC)cc2)c2c([nH][nH]c2=O)CC1(C)O (stereo unspecified) | > 200 µM | > 200 µM | – |
| C[C@H]1O[C@@H](C(C)(C)C)OC(=O)[C@@H]1C(OC(=O)c1ccccc1)c1cccc2ccccc12 (stereo partly specified) | > 200 µM | 83.2 µM | – |
| CC(=O)O[C@H]1CSC[C@@H](OC(C)=O)C1[N+](=O)[O-] (stereo partly specified) | > 692 µM | 33.1 µM | – |

| Structure (SMILES) | EC50 | IC50 | outcome |
| --- | --- | --- | --- |
| OCC(CN1CCCCC1)(CN1CCCCC1)CN1CCCCC1 | > 50.1 µM | > 50.1 µM | – |
| O=C(c1ccccc1)C(O)(CC(c1ccccc1)[P+](c1ccccc1)(c1ccccc1)c1ccccc1)c1ccccc1 (stereo unspecified) | > 200 µM | 1.17 µM | – |
| O=C1C=C(N2CC2)C(=O)C=C1N1CC1 | > 0.2 µM | 0.0141 µM | – |
| O=C(c1ccco1)N(C(=S)OCc1ccccn1)c1ccccc1 | > 200 µM | 105 µM | – |
| CSc1ccc(-c2cn3ccsc3n2)c(O)c1 | > 85.1 µM | 17.4 µM | – |
| O=C(CN1CCOCC1)CC(O)(C(F)(F)F)C(F)(F)F | > 200 µM | 95.5 µM | – |
| O=C(CC(=O)Nc1ccccc1Cl)NNC(Sc1ccccc1)c1cc(N=Nc2ccc(Br)cc2)ccc1O (stereo unspecified) | > 100 µM | 1.91 µM | – |
| CCn1ncc(N=O)c1N | > 200 µM | > 200 µM | – |
| N#CSC1CCCCCCC1SC#N (stereo unspecified) | > 200 µM | 10.5 µM | – |
| Cc1cn(CC2OCC(CO)O2)c(=O)[nH]c1=O (stereo unspecified) | > 1290 µM | 1100 µM | – |
| COCN1C(=O)C2CC(/C=C/C(N)=O)=CN2C(=O)c2ccccc21 (stereo unspecified) | – | – | inactive |
| O=C1C(Br)=C(c2ccccc2)C(c2ccccc2)=C1c1ccccc1 | – | – | inactive |
| O=C(CC(C(=O)c1ccc(F)cc1)c1ccsc1)c1cccs1 (stereo unspecified) | > 200 µM | > 200 µM | – |
| CC(C)Oc1cc2c(c3oc(=O)c4c(c13)CCCC4)C(=O)[C@H](C)[C@@H](C)O2 | > 200 µM | 12.3 µM | – |
| O=c1ccc2c(-c3ccccc3S(=O)(=O)O)c3ccc(O)c(O)c3oc-2c1O | 2.4 µM | > 200 µM | – |
| O=C(N/N=C/c1ccccn1)c1ccccc1[O-].O=C(N/N=C/c1ccccn1)c1ccccc1[O-].[Co+2] | > 200 µM | 33.9 µM | – |
| COC(=O)C1C(=O)C(C(=O)OC)C2(C)C(C(=O)OC)C(=O)C(C(=O)OC)C12 (stereo unspecified) | > 468 µM | > 468 µM | – |
| NC(=O)C1=CC2C3C=CC2(O)C(=O)OC3O1 (stereo unspecified) | > 1120 µM | 1.17 µM | – |
| Cn1c(COC(=O)NC2CCCCC2)c(COC(=O)NC2CCCCC2)c2ccc3cc(Cl)c(Cl)cc3c21 | > 174 µM | 6.46 µM | – |
| COc1ccc2c(=O)c(-c3ccc4c(c3)OCO4)c(C)oc2c1 | > 200 µM | 42.7 µM | – |
| CCOC(=O)C(C(=S)Nc1ccccc1)c1nn2c(=O)cc(C)nc2s1 (stereo unspecified) | > 200 µM | 34.7 µM | – |
| CCCCCCCCCCCCCCCCOC1OC(COC(C)=O)C(OC(C)=O)C(OC(C)=O)C1OC(C)=O (stereo unspecified) | > 12.6 µM | > 12.6 µM | – |

| Structure (SMILES) | EC50 | IC50 | outcome |
| --- | --- | --- | --- |
| O=C(C[n+]1ccccc1)c1ccc(O)c(O)c1 | 0.0631 µM | > 200 µM | – |
| O=C(NC1CCN(Cc2ccccc2)CC1)c1ccc(I)cc1 | > 200 µM | 15.8 µM | – |
| NC(=O)C1C[C@@H](O)CN1C(=O)c1ccc2c(c1)OCO2 (stereo partly specified) | > 200 µM | > 200 µM | – |
| CCOP(=O)(OCC)C(NC(=O)C(C(F)(F)F)C(F)(F)F)c1ccccc1 (stereo unspecified) | > 200 µM | 24.5 µM | – |
| CC(C)c1cccc(C(C)C)c1NC(=O)C(=O)C(C(=O)c1ccccc1-c1ccccc1)C1OC(=O)c2ccccc21 (stereo unspecified) | > 64.6 µM | 25.1 µM | – |
| CCCCCCCCCCCCCCCCOC1OC(CO)C(O)C(O)C1O (stereo unspecified) | > 9.33 µM | > 9.33 µM | – |
| c1n[nH]cc1C12C3C4C5C3C1C5C42 (stereo unspecified) | > 200 µM | 120 µM | – |
| O=c1c(SCc2ccc(Cl)cc2)c(N2CCOCC2)cnn1-c1ccccc1 | > 63.1 µM | 44.7 µM | – |
| CCOC(=O)/C=C/SCCNC(=O)OCC | > 204 µM | 120 µM | – |
| Cc1ccc(C(=O)OCC(C)C)cc1N=NN(C)C | > 27.5 µM | > 27.5 µM | – |
| Cc1cc(C)n2c(nc3ccccc32)c1C#N | > 200 µM | 148 µM | – |
| Cc1ccc(N/N=C/C2=CC(C)(C)C(C#N)(C#N)C(O)=C2C#N)cc1 | > 200 µM | 6.61 µM | – |
| ClC(Cl)=CC(Cl)(Cl)C(Cl)(Cl)C(Cl)(Cl)Cl | > 200 µM | 5.5 µM | – |
| CC(=O)Oc1ccc([As](=O)(O)O)cc1N | > 200 µM | > 200 µM | – |
| S=C(N/N=C/c1ccccn1)N1CCCCCC1 | > 0.2 µM | 0.0105 µM | – |
| Cn1c2ccccc2n2c3ccccc3c(=O)c(C#N)c12 | > 200 µM | 2.57 µM | – |
| Cc1ccc(C)c(COCCOCn2cc(Br)c(N)nc2=O)c1 | > 200 µM | > 200 µM | – |
| CC(=O)Oc1c(Br)cc(-c2oc(-c3cc(Br)c(OC(C)=O)c(Br)c3)c3ccccc23)cc1Br | > 100 µM | 38.9 µM | – |
| COC1CC(OC2C(C)OC(OC3C(C)OC(OC4C(O)CC(O[C@H]5CC[C@@]6(C)C(=CC[C@]7(O)[C@@H]6C[C@@H](OC(C)=O)[C@@]6(C)[C@]7(O)CC[C@@]6(O)C(C)=O)C5)OC4C)CC3OC)CC2OC)OC(C)C1O (stereo partly specified) | > 200 µM | > 200 µM | – |
| COc1cccc(/C=C2\Cc3ccccc3C2=O)c1 | > 4.17 µM | > 4.17 µM | – |
| Nc1ncnc2c(C3OC(CO)C(O)C3O)nsc12 (stereo unspecified) | > 200 µM | – | – |
| COC(=O)C1=CC(=O)N2CCN=C2S1 | > 200 µM | > 200 µM | – |

| Structure (SMILES) | EC50 | IC50 | outcome |
| --- | --- | --- | --- |
| C[C@@H]1C(=O)c2c(O)cc3c(c2O[C@@H]1C)CCC(C)(C)O3 | > 200 µM | 47.9 µM | – |
| CCOC(=O)C(CC(C(=O)OCC)C(=O)OCC)C(=O)OCC | – | – | inactive |
| CC[C@@]1(C(=O)OC)C=CCN2C(=O)OC(C)(C)C21 (stereo partly specified) | – | – | inactive |
| COC(=O)CCC(=O)c1ccc2c(c1)CC1(C2)Cc2ccc(C(=O)CCC(=O)OC)cc2C1 | > 200 µM | 42.7 µM | – |
| C[N+]1(C)CCC(C#N)(c2ccccc2)CC1 | > 724 µM | – | – |
| S=C(NNc1ccccc1Oc1ccccc1)NNc1ccccc1Oc1ccccc1 | > 100 µM | > 100 µM | – |
| COc1cc2cccc(NC(=O)c3cc(OC)c(OC)c(OC)c3Br)c2cc1OC | – | – | inactive |
| O=[N+]([O-])c1cc(I)cc(/C=N/NS(=O)(=O)c2ccc(F)cc2)c1O | > 389 µM | 67.6 µM | – |
| c1ccc2c3c(ccc2c1)CN1CCCCC1C3 (stereo unspecified) | > 676 µM | 49 µM | – |
| O=C(O)CCCCCCC[n+]1ccccc1 | 126 µM | > 200 µM | – |
| S=C(NCCCCCCNC(=S)Nc1c2ccccc2nc2ccccc12)Nc1c2ccccc2nc2ccccc12 | – | – | inactive |
| COc1cc2c(cc1OC)C(Cl)C(c1ccc(Br)cc1)=C2Cl (stereo unspecified) | – | – | inactive |
| O=C(CNC(=O)c1ccccc1)NC(CSCc1ccccc1)C(=O)O (stereo unspecified) (Bz-Gly-[ξC](Bn)-OH) | > 676 µM | 550 µM | – |
| CCOC(=O)C(NC(=O)CC)(Nc1ccc(F)cc1F)C(F)(F)F (stereo unspecified) | > 200 µM | > 200 µM | – |
| CC(=O)N1C/C(=C\c2ccccc2)C(=O)/C(=C/c2ccccc2)C1 | – | – | inactive |
| Nc1c(C(=O)O)nnc2cc(Cl)c(Cl)cc12 | > 200 µM | > 200 µM | – |
| NC(=O)CC[C@H]1C(=O)N=C(N)N1C(=O)OCc1ccccc1 | > 200 µM | > 200 µM | – |
| NCCCCC(N)C(=O)NCCNc1ccc(NCCNC(=O)C(N)CCCCN)c2c1C(=O)c1ccccc1C2=O (stereo unspecified) | > 100 µM | 3.39 µM | – |
| CCOC(=O)C1S/C(=N\C(=N)N[N+](=O)[O-])N=C1C (stereo unspecified) | – | – | inactive |
| CC1(O)c2ccccc2[P+](C)(c2ccccc2)c2ccccc21 (stereo unspecified) | > 562 µM | 29.5 µM | – |
| CC(CCc1nc2ccccc2[nH]1)C1CCC2C3CC[C@@H]4C[C@H](O)CC[C@]4(C)C3C[C@H](O)[C@]12C (stereo partly specified) | > 50.1 µM | 4.07 µM | – |
